Usually IC50 stands for the concentration that inhibits the measured activity by half.

Molecules are shown by their SMILES.

Among the data in EP4741392A1, “1H-PYRAZOLO[4,3-C]PYRIDINE COMPOUND, AND COMPOSITION THEREOF AND USE THEREOF” (Shenzhen TargetRx Co., Ltd., priority 2023, dated 2025) are IC50 values, retold here.

Type in all cases: biochemical
Experiment [1] addresses T1, BTK C481S (Homo sapiens, UniProt Q06187, C481S).
T1 construct: purchased Carna 08-547
Nature of the experiment: Kinase activity inhibition assay (HTRF TK Kit). The method, boiled down:
(§1)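 Cmpd + substrate/ATP + kinase, assembled on ice, shaken 30 s, RT reaction; detection mix (SA-XL665 + TK Ab-cryptate) 1 h RT; 665/620 ratio. Controls: no-kinase blank, kinase + 1% DMSO. IC50 via 4-parameter logistic fit of % inhibition vs log[cmpd].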
For orientation: TR-FRET usually uses a lanthanide donor and a delayed reading to cut background.

Experiment [2] has as its target T2, BTK kinase (Homo sapiens, UniProt Q06187).
T2 construct: purchased Invitrogen PV3587
In words: Kinase activity inhibition assay (HTRF TK Kit). The gist of the method:
as §1

For experiment [3], the target named is T3, BTK T474I (Homo sapiens, UniProt Q06187, T474I).
T3 construct: purchased SignalChem B10-12HH
T3 sequence (Q06187 whole entry T474I): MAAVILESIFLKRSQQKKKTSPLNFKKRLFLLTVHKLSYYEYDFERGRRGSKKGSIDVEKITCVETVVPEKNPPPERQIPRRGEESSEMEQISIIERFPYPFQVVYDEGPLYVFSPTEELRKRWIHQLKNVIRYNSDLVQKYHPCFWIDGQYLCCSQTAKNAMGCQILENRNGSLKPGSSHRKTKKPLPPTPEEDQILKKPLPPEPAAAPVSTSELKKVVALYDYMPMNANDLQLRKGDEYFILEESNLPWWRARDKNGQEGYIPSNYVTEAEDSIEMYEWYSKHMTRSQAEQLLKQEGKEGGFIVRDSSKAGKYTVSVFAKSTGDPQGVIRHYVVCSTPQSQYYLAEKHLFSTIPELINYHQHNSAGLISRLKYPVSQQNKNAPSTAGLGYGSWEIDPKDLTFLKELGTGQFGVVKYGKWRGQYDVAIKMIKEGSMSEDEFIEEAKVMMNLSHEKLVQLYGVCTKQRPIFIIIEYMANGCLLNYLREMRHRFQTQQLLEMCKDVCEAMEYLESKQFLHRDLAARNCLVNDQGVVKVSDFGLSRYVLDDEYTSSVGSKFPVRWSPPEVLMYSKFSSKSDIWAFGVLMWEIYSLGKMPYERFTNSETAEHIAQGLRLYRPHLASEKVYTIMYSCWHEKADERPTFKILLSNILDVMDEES
In words: Kinase activity inhibition assay (HTRF TK Kit). The gist of the method: as §1

Experiment [4] concerns the target T4, ITK (Homo sapiens, UniProt Q08881).
T4 construct: purchased Carna 08-181
T4 sequence (Q08881 1-620): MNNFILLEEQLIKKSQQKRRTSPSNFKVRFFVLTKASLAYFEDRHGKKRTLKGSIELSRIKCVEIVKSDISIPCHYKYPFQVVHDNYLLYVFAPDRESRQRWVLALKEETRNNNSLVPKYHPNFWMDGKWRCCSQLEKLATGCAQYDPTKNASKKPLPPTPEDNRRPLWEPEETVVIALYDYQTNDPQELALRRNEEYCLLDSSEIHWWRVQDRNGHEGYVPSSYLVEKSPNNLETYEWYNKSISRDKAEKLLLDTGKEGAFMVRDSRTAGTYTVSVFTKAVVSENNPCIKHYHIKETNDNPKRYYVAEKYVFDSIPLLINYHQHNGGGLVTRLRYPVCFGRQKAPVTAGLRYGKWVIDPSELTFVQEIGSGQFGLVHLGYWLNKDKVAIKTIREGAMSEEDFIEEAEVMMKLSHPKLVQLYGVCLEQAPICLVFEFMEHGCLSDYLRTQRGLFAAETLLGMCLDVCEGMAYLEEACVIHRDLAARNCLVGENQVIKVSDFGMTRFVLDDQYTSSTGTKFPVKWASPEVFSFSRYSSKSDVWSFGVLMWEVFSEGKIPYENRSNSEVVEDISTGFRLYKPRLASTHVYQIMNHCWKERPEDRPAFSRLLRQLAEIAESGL
Nature of the experiment: Kinase activity inhibition assay (HTRF TK Kit), selectivity. The gist of the method: as §1

Experiment [5] deals with T5, TEC (Homo sapiens, UniProt P42680).
T5 construct: purchased Carna 08-182
T5 sequence (P42680 1-631): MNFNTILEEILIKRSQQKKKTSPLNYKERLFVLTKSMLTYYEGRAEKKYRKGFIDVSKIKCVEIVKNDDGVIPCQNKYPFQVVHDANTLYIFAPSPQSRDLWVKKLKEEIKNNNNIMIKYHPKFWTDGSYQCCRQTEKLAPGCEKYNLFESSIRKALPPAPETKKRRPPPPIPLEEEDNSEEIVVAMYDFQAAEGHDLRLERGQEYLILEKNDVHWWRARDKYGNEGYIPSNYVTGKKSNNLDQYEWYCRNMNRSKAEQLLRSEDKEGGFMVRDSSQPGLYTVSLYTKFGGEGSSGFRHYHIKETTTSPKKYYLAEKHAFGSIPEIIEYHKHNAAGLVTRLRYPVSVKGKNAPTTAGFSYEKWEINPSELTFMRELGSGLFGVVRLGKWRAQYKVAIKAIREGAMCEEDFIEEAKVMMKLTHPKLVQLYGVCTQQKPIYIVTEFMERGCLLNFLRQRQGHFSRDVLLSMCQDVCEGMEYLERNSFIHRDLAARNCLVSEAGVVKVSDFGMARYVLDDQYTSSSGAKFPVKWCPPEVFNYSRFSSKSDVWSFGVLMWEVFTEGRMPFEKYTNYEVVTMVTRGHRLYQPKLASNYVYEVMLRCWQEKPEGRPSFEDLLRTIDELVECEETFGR
Described as above. The method, boiled down:
as §1

The target of experiment [6] is T6, EGFR (Homo sapiens, UniProt P00533).
T6 construct: purchased Carna 08-115
T6 sequence (P00533 669-1210 limits assumed): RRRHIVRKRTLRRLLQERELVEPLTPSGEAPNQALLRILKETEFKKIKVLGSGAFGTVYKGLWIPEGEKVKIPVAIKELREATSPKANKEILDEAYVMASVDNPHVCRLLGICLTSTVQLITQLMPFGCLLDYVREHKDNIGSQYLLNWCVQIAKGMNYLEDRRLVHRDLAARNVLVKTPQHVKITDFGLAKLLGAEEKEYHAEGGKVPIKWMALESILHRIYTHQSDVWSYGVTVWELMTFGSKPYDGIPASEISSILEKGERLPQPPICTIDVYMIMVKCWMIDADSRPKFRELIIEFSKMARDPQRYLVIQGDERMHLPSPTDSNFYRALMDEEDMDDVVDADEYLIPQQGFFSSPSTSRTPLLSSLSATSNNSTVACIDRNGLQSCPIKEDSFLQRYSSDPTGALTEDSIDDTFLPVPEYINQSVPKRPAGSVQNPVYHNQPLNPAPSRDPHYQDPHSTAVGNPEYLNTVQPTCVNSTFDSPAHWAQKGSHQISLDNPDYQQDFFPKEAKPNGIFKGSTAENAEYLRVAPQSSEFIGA
The experiment is described as above. The method, boiled down: as §1

T2 sequence (Q06187 whole entry): as the sequence (Q06187 whole entry T474I) above, with I474T counted along it
T1 sequence (Q06187 whole entry C481S): as the sequence (Q06187 whole entry T474I) above, with I474T, C481S counted along it

For `COc1ccc(F)cc1C(=O)NCc1ccc(-c2ncc(-c3ccc(C4COC4)cn3)c3[nH]nc(N)c23)cc1` [Example 43, N-(4-(3-amino-7-(5-(oxetan-3-yl)pyridin-2-yl)-1H-pyrazolo[4,3-c]pyridin-4-yl)benzyl)-5-fluoro-2-methoxybenzamide], the IC50 in experiment [1] was ≤ 1 nM; in experiment [2] it was ≤ 1 nM; in experiment [3], 5 to 50 nM; in experiment [4], 50 to 500 nM; in experiment [5], 1 to 5 nM; in experiment [6], 5 to 50 nM.

As for `COc1ccc(F)cc1C(=O)NCc1ccc(-c2ncc(-c3cc4ncccn4n3)c3[nH]nc(N)c23)cc1` [Example 44, N-(4-(3-amino-7-(pyrazolo[1,5-a]pyrimidin-2-yl)-1H-pyrazolo[4,3-c]pyridin-4-yl)benzyl)-5-fluoro-2-methoxybenzamide], the IC50 was ≤ 1 nM in experiment [1]; ≤ 1 nM in experiment [2]; 5 to 50 nM in experiment [3]; 50 to 500 nM in experiment [4]; 5 to 50 nM in experiment [5]; 5 to 50 nM in experiment [6].

`CCOC(=O)c1cnc2cc(-c3cnc(-c4ccc(CNC(=O)c5cc(F)ccc5OC)cc4)c4c(N)n[nH]c34)nn2c1` [Example 45, ethyl 2-(3-amino-4-(4-((5-fluoro-2-methoxybenzoylamino)methyl)phenyl)-1H-pyrazolo[4,3-c]pyridin-7-yl)pyrazolo[1,5-a]pyrimidine-6-carboxylate]: the IC50 in experiment [1] is 5 to 50 nM; in experiment [2] it was 5 to 50 nM; in experiment [3], > 500 nM; in experiment [4], > 500 nM; in experiment [5], 50 to 500 nM; in experiment [6] it was 50 to 500 nM.

With `COc1ccc(F)cc1C(=O)NCc1ccc(-c2ncc(-c3ccn4nccc4n3)c3[nH]nc(N)c23)cc1` [Example 46, N-(4-(3-amino-7-(pyrazolo[1,5-a]pyrimidin-5-yl)-1H-pyrazolo[4,3-c]pyridin-4-yl)benzyl)-5-fluoro-2-methoxybenzamide], the IC50 is 1 to 5 nM in experiment [1]; 1 to 5 nM in experiment [2]; 50 to 500 nM in experiment [3]; > 500 nM in experiment [4]; 5 to 50 nM in experiment [5]; 5 to 50 nM in experiment [6].

On to `COc1ccc(F)cc1C(=O)NCc1ccc(-c2ncc(-c3ccc4cn[nH]c4n3)c3[nH]nc(N)c23)cc1` [Example 47, N-(4-(3-amino-7-(1H-pyrazolo[3,4-b]pyridin-6-yl)-1H-pyrazolo[4,3-c]pyridin-4-yl)benzyl)-5-fluoro-2-methoxybenzamide], for which the IC50 in experiment [1] is 1 to 5 nM; in experiment [2], 1 to 5 nM; in experiment [3], 50 to 500 nM; in experiment [4], > 500 nM; in experiment [5] it was 5 to 50 nM; in experiment [6], 50 to 500 nM.

Consider `COc1ccc(F)cc1C(=O)NCc1ccc(-c2ncc(-c3ccc(C(F)F)cn3)c3[nH]nc(N)c23)cc1` [Example 48, N-(4-(3-amino-7-(5-(difluoromethyl)pyridin-2-yl)-1H-pyrazolo[4,3-c]pyridin-4-yl)benzyl)-5-fluoro-2-methoxybenzamide], for which the IC50 in experiment [1] lay in the range of 1 to 5 nM; in experiment [2], 1 to 5 nM; in experiment [3], 5 to 50 nM; in experiment [4], 50 to 500 nM; in experiment [5], 5 to 50 nM; in experiment [6], 50 to 500 nM.

Turning to `COc1ccc(F)cc1C(=O)NCc1ccc(-c2ncc(-c3cn4ccnc4cn3)c3[nH]nc(N)c23)cc1` [Example 50, N-(4-(3-amino-7-(imidazo[1,2-a]pyrazin-6-yl)-1H-pyrazolo[4,3-c]pyridin-4-yl)benzyl)-5-fluoro-2-methoxybenzamide], the IC50 in experiment [1] was 1 to 5 nM; in experiment [2] it was 1 to 5 nM; in experiment [3], 50 to 500 nM; in experiment [4], > 500 nM; in experiment [5], 5 to 50 nM; in experiment [6] it was 50 to 500 nM.

As for `COc1ccc(F)cc1C(=O)NCc1ccc(-c2ncc(-c3ccc4nccn4n3)c3[nH]nc(N)c23)cc1` [Example 51, N-(4-(3-amino-7-(imidazo[1,2-b]pyridazin-6-yl)-1H-pyrazolo[4,3-c]pyridin-4-yl)benzyl)-5-fluoro-2-methoxybenzamide], the IC50 in experiment [1] is ≤ 1 nM; in experiment [2] it was 1 to 5 nM; in experiment [3] it was 50 to 500 nM; in experiment [4], > 500 nM; in experiment [5], 5 to 50 nM; in experiment [6] it was 50 to 500 nM.

For the compound `COc1ccc(F)cc1C(=O)NCc1ccc(-c2ncc(-c3ccc(C(=O)N4CCOCC4)cn3)c3[nH]nc(N)c23)cc1` [Example 52, N-(4-(3-amino-7-(5-(morpholine-4-carbonyl)pyridin-2-yl)-1H-pyrazolo[4,3-c]pyridin-4-yl)benzyl)-5-fluoro-2-methoxybenzamide], the IC50 in experiment [1] is ≤ 1 nM; in experiment [2] it was ≤ 1 nM; in experiment [3], 5 to 50 nM; in experiment [4], 50 to 500 nM; in experiment [5], 5 to 50 nM; in experiment [6] it was 50 to 500 nM.

With `COc1ccc(F)cc1C(=O)NCc1ccc(-c2ncc(-c3ccc(C(=O)N4C[C@H](C)O[C@@H](C)C4)cn3)c3[nH]nc(N)c23)cc1` [Example 53, N-(4-(3-amino-7-(5-((2S,6S)-2,6-dimethylmorpholine-4-carbonyl)pyridin-2-yl)-1H-pyrazolo[4,3-c]pyridin-4-yl)benzyl)-5-fluoro-2-methoxybenzamide], the IC50 in experiment [1] fell in the range of 1 to 5 nM; in experiment [2], 1 to 5 nM; in experiment [3] it was 50 to 500 nM; in experiment [4], 50 to 500 nM; in experiment [5], 5 to 50 nM; in experiment [6], 50 to 500 nM.

Take `COc1ccc(F)cc1C(=O)NCc1ccc(-c2ncc(-c3ccc(C(=O)N4C[C@@H](C)O[C@H](C)C4)cn3)c3[nH]nc(N)c23)cc1` [Example 54, N-(4-(3-amino-7-(5-((2R,6R)-2,6-dimethylmoroholine-4-carbonyl)pyridin-2-yl)-1H-pyrazolo[4,3-c]pyridin-4-yl)benzyl)-5-fluoro-2-methoxybenzamide]: the IC50 is 1 to 5 nM in experiment [1]; 1 to 5 nM in experiment [2]; 50 to 500 nM in experiment [3]; 50 to 500 nM in experiment [4]; 5 to 50 nM in experiment [5]; 50 to 500 nM in experiment [6].

For `COc1ccc(F)cc1C(=O)NCc1ccc(-c2ncc(-c3ccc(P(C)(C)=O)cn3)c3[nH]nc(N)c23)cc1` [Example 56, N-(4-(3-amino-7-(5-(dimethylphosphoryl)pyridin-2-yl)-1H-pyrazolo[4,3-c]pyridin-4-yl)benzyl)-5-fluoro-2-methoxybenzamide], the IC50 was 1 to 5 nM in experiment [1]; 1 to 5 nM in experiment [2]; 5 to 50 nM in experiment [3]; 50 to 500 nM in experiment [4]; 5 to 50 nM in experiment [5]; 50 to 500 nM in experiment [6].

Take `COc1ccc(F)cc1C(=O)NCc1ccc(-c2ncc(-c3nc4cnccn4n3)c3[nH]nc(N)c23)cc1` [Example 57, N-(4-(7-([1,2,4]triazolo[1,5-a]pyrazin-2-yl)-3-amino-1H-pyrazolo[4,3-c]pyridin-4-yl)benzyl)-5-fluoro-2-methoxybenzamide]: the IC50 in experiment [1] is ≤ 1 nM; in experiment [2] it was 1 to 5 nM; in experiment [3], 50 to 500 nM; in experiment [4], > 500 nM; in experiment [5], 50 to 500 nM; in experiment [6] it was 50 to 500 nM.

`COc1ccc(F)cc1C(=O)NCc1ccc(-c2ncc(-c3nc4ccccn4n3)c3[nH]nc(N)c23)cc1` [Example 58, N-(4-(7-([1,2,4]triazolo[1,5-a]pyridin-2-yl)-3-amino-1H-pyrazolo[4,3-c]pyridin-4-yl)benzyl)-5-fluoro-2-methoxybenzamide]: the IC50 in experiment [1] was 1 to 5 nM; in experiment [2], 1 to 5 nM; in experiment [3] it was 5 to 50 nM; in experiment [4], > 500 nM; in experiment [5], 5 to 50 nM; in experiment [6] it was 50 to 500 nM.
